Results from US10681909B2, “Herbicidal triazoles” (FMC Corporation, priority 2014, dated 2020).

Legend:
crabgrass, large = experiment: Test A postemergence; format: in vivo, Digitaria sanguinalis; details: Digitaria sanguinalis, post-emergence, 240 h, 0 to 100 scale (0 no effect, 100 complete control), approx. 10 d, read-out: Plant response rating, Crabgrass, Large; for pest or weed control at 125 g/ha: 125 g ai/ha; for pest or weed control at 500 g/ha: 500 g ai/ha
Method in brief: (§1)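 Pre- and postemergence spray tests in a loam soil–sand mixture: seeded soil received a directed spray, while established seedlings 2–10 cm high at the one- to two-leaf stage were treated over the top. Compounds were carried in non-phytotoxic solvent with surfactant.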

morningglory = experiment: Test A postemergence; format: in vivo, Ipomoea spp.; details: Ipomoea, post-emergence, 240 h, 0 to 100 scale (0 no effect, 100 complete control), approx. 10 d, read-out: Plant response rating, Morningglory; for pest or weed control at 125 g/ha: 125 g ai/ha; for pest or weed control at 500 g/ha: 500 g ai/ha
Method in brief: as §1

blackgrass = experiment: Test C preemergence; format: in vivo, Alopecurus myosuroides; details: for Plant response rating (scale of 0 to 100 where 0 is no effect and 100 is complete control): Blackgrass, preemergence; for Blackgrass plant response rating (0 to 100): Preemergence, visual rating after 13 to 15 d
Excerpt: (§2) Seeds of plant species selected from blackgrass (Alopecurus myosuroides), ryegrass, Italian (Italian ryegrass, Lolium multiflorum), wheat (winter wheat, Triticum aestivum), galium (catchweed bedstraw, Galium aparine), corn (Zea mays), crabgrass, large (large crabgrass, Digitaria sanguinalis), foxtail, giant, (giant foxtail, Setaria faberii), johnsongrass (Sorghum halepense), lambsquarters (Chenopodium album), morningglory (Ipomoea coccinea), nutsedge, yellow (yellow nutsedge, Cyperus esculentus), pigweed (Amaranthus retroflexus), ragweed (common ragweed, Ambrosia elatior), soybean (Glycine max), barnyardgrass (Echinochloa crus-galli), oilseed rape (Brassica napus), waterhemp (common waterhemp, Amaranthus rudis), and velvetleaf (Abutilon theophrasti) were planted into a blend of loam soil and sand and treated preemergence with test chemicals formulated in a non-phytotoxic solvent mixture which included a surfactant. At the same time, plants selected from these crop and weed species and also chickweed (common chickweed, Stellaria media), oat, wild (wild oat, Avena fatua), and kochia (Kochia scoparia), were planted in pots containing Sunshine Redi-Earth® planting medium comprising spaghnum peat moss, vermiculite, starter nutrients and dolomitic limestone and treated with postemergence applications of test chemicals formulated in the same manner. Plants ranged in height from 2 to 18 cm (1- to 4-leaf stage) for postemergence treatments. […] A dash (-) response means no test result.

waterhemp = experiment: Test C preemergence; format: in vivo, Amaranthus rudis; details: for Waterhemp plant response rating (0 to 100): Preemergence, visual rating after 13 to 15 d; for Plant response rating (scale of 0 to 100 where 0 is no effect and 100 is complete control): Waterhemp, preemergence, 250 g ai/ha
Excerpt: as §2

kochia = experiment: Test D postemergence; format: in vivo, Kochia scoparia; details: scale 0 to 100
Excerpt: (§3) Seeds of plant species selected from bluegrass (annual bluegrass, Poa annua), blackgrass (Alopecurus myosuroides), canarygrass (Phalaris minor), chickweed (common chickweed, Stellaria media), galium (catchweed bedstraw, Galium aparine), bromegrass, down (downy bromegrass, Bromus tectorum), Russian thistle (Salsola kali), field poppy (Papaver rhoeas), field violet (Viola arvensis), foxtail, green (green foxtail, Setaria viridis), deadnettle (henbit deadnettle, Lamium amplexicaule), ryegrass, Ital. (Italian ryegrass, Lolium multiflorum), kochia (Kochia scoparia), lambsquarters (Chenopodium album), oilseed rape (Brassica napus), pigweed (Amaranthus retroflexus), chamomile (scentless chamomile, Matricaria inodora), speedwell (bird's-eye speedwell, Veronica persica), barley, spring (spring barley, Hordeum vulgare), wheat, spring (spring wheat, Triticum aestivum), buckwheat, wild (wild buckwheat, Polygonum convolvulus), wild mustard (Sinapis arvensis), oat, wild (wild oat, Avena fatua), radish, wild (wild radish, Raphanus raphanistrum), […]), barley, winter (winter barley, Hordeum vulgare), and wheat, winter (winter wheat, Triticum aestivum) were planted into a silt loam soil and treated preemergence with test chemicals formulated in a non-phytotoxic solvent mixture which included a surfactant. At the same time, these species were planted in pots containing Sunshine Redi-Earth® planting medium comprising spaghnum peat moss, vermiculite, starter nutrients and dolomitic limestone and treated with postemergence applications of the test chemicals formulated in the same manner. Plants ranged in height from 2 to 18 cm (1- to 4-leaf stage). Treated plants and controls were maintained in a controlled growth environment for 14 to 21 d after which time all species were compared to controls and visually evaluated. […] A dash (-) response means no test result.

pigweed = experiment: Test D preemergence; format: in vivo, Amaranthus retroflexus; details: for Plant response rating: Pigweed: scale 0 to 100
Excerpt: as §3

oilseed rape [1] = experiment: Test D preemergence; format: in vivo, Brassica napus; details: for Plant response rating: Oilseed Rape: scale 0 to 100
Excerpt: as §3

oilseed rape [2] = experiment: Test D postemergence; format: in vivo, Brassica napus; details: scale 0 to 100
Excerpt: as §3

bromegrass, down = experiment: Test D postemergence; format: in vivo, Bromus tectorum; details: scale 0 to 100
Excerpt: as §3

buckwheat, wild [3] = experiment: Test D postemergence; format: in vivo, Polygonum convolvulus; details: scale 0 to 100
Excerpt: as §3

field violet = experiment: Test D postemergence; format: in vivo, Viola arvensis; details: scale 0 to 100
Excerpt: as §3

buckwheat, wild [4] = experiment: Test D preemergence; format: in vivo, Polygonum convolvulus; details: for Plant response rating: Buckwheat, Wild: scale 0 to 100
Excerpt: as §3

bluegrass = experiment: Test D postemergence; format: in vivo, Poa annua; details: scale 0 to 100
Excerpt: as §3

[5] = 16 g ai/ha, 0 is no effect, 100 is complete control

CCn1nc(-c2ccc(F)cc2)nc1C(=O)c1ccnc(C(F)(F)F)c1 [Compound 19, [1-ethyl-3-(4-fluorophenyl)-1H-1,2,4-triazol-5-yl][2-(trifluoromethyl)-4-pyridinyl]methanone]
pest or weed control at 125 g/ha (crabgrass, large): 0% | pest or weed control at 500 g/ha (crabgrass, large): 0% | pest or weed control at 125 g/ha (morningglory): 0% | pest or weed control at 500 g/ha (morningglory): 0%

CCCc1nc(-c2ccc(F)cc2)nn1Cc1ccnc(C(F)(F)F)c1 [Compound 6, 4-[[3-(4-fluorophenyl)-5-propyl-1H-1,2,4-triazol-1-yl]methyl]-2-(trifluoromethyl)pyridine]
pest or weed control at 125 g/ha (crabgrass, large): 90% | pest or weed control at 500 g/ha (crabgrass, large): 90% | Plant response rating (scale of 0 to 100 where 0 is no effect and 100 is complete control) (blackgrass; 125 g ai/ha): 95 | Plant response rating (scale of 0 to 100 where 0 is no effect and 100 is complete control) (blackgrass; 250 g ai/ha): 95 | Blackgrass plant response rating (0 to 100) (blackgrass; 31 g ai/ha): 70 | Blackgrass plant response rating (0 to 100) (blackgrass; 62 g ai/ha): 90 | pest or weed control at 125 g/ha (morningglory): 100% | pest or weed control at 500 g/ha (morningglory): 100%

CS(=O)(=O)c1nc(-c2ccc(F)cc2)nn1Cc1ccnc(C(F)(F)F)c1 [Compound 29, 4-[[3-(4-fluorophenyl)-5-(methylsulfonyl)-1H-1,2,4-triazole-1-yl]methyl]-2-(trifluoromethyl)pyridine]
pest or weed control at 125 g/ha (crabgrass, large): 0% | pest or weed control at 500 g/ha (crabgrass, large): 0% | pest or weed control at 125 g/ha (morningglory): 0% | pest or weed control at 500 g/ha (morningglory): 0%

CCn1nc(-c2ccc(F)cc2)nc1C(O)c1ccnc(C(F)(F)F)c1 (stereo not drawn) [Compound 15, α-[1-Ethyl-3-(4-fluorophenyl)-1H-1,2,4-triazol-5-yl]-2-(trifluoromethyl)-4-pyridinemethanol]
pest or weed control at 125 g/ha (crabgrass, large): 0% | pest or weed control at 500 g/ha (crabgrass, large): 10% | pest or weed control at 125 g/ha (morningglory): 0% | pest or weed control at 500 g/ha (morningglory): 10%

Cn1nc(-c2ccc(F)cc2)nc1Oc1cccc(C(F)(F)F)c1 [Compound 5, 3-(4-fluorophenyl)-1-methyl-5-[3-(trifluoromethyl)phenoxy]-1H-1,2,4-triazole]
pest or weed control at 125 g/ha (crabgrass, large): 30% | pest or weed control at 500 g/ha (crabgrass, large): 90% | pest or weed control at 125 g/ha (morningglory): 50% | pest or weed control at 500 g/ha (morningglory): 100%

COc1nc(-c2ccc(F)cc2)nn1Cc1ccnc(C(F)(F)F)c1 [Compound 9, 4-[[3-(4-fluorophenyl)-5-methoxy-1H-1,2,4-triazol-1-yl]methyl]-2-(trifluoromethyl)pyridine]
pest or weed control at 125 g/ha (crabgrass, large): 90% | pest or weed control at 500 g/ha (crabgrass, large): 100% | Plant response rating (scale of 0 to 100 where 0 is no effect and 100 is complete control) (blackgrass; 125 g ai/ha): 90 | Plant response rating (scale of 0 to 100 where 0 is no effect and 100 is complete control) (blackgrass; 250 g ai/ha): 90 | Blackgrass plant response rating (0 to 100) (blackgrass; 31 g ai/ha): 5 | Blackgrass plant response rating (0 to 100) (blackgrass; 62 g ai/ha): 85 | Waterhemp plant response rating (0 to 100) (waterhemp; 31 g ai/ha): 100 | Waterhemp plant response rating (0 to 100) (waterhemp; 62 g ai/ha): 100 | Plant response rating (scale of 0 to 100 where 0 is no effect and 100 is complete control) (waterhemp): 100 | pest or weed control at 125 g/ha (morningglory): 90% | pest or weed control at 500 g/ha (morningglory): 100%

COc1nc(-c2ccccc2)nn1Cc1ccnc(C(F)(F)F)c1 [Compound 32]
Plant response rating (scale of 0 to 100 where 0 is no effect and 100 is complete control) (blackgrass; 125 g ai/ha): 10 | Plant response rating (scale of 0 to 100 where 0 is no effect and 100 is complete control) (blackgrass; 250 g ai/ha): 90 | Blackgrass plant response rating (0 to 100) (blackgrass; 31 g ai/ha): 0 | Blackgrass plant response rating (0 to 100) (blackgrass; 62 g ai/ha): 0 | Waterhemp plant response rating (0 to 100) (waterhemp; 31 g ai/ha): 90 | Waterhemp plant response rating (0 to 100) (waterhemp; 62 g ai/ha): 100 | Plant response rating (scale of 0 to 100 where 0 is no effect and 100 is complete control) (waterhemp): 100

COc1nc(-c2ccc(Cl)cc2)nn1Cc1ccnc(C(F)(F)F)c1 [Compound 28]
Plant response rating: Kochia (kochia; 16 g ai/ha): 85 | Plant response rating: Kochia (kochia; 31 g ai/ha): 85 | Plant response rating: Kochia (kochia; 62 g ai/ha): 85 | Plant response rating: Kochia (kochia; 125 g ai/ha): 95 | Plant response rating (0 to 100), Pigweed (pigweed; [5]): 100 | Plant response rating: Pigweed (pigweed; 62 g ai/ha): 100 | Plant response rating: Pigweed (pigweed; 125 g ai/ha): 100 | Plant response rating (0 to 100), Oilseed Rape (oilseed rape [1]; [5]): 10 | Plant response rating: Oilseed Rape (oilseed rape [1]; 62 g ai/ha): 15 | Plant response rating: Oilseed Rape (oilseed rape [1]; 125 g ai/ha): 15 | Plant response rating: Oilseed Rape (oilseed rape [2]; 16 g ai/ha): 65 | Plant response rating: Oilseed Rape (oilseed rape [2]; 31 g ai/ha): 75 | Plant response rating: Oilseed Rape (oilseed rape [2]; 62 g ai/ha): 75 | Plant response rating: Oilseed Rape (oilseed rape [2]; 125 g ai/ha): 85 | Plant response rating: Bromegrass, Down (bromegrass, down; 16 g ai/ha): 20 | Plant response rating: Bromegrass, Down (bromegrass, down; 31 g ai/ha): 20 | Plant response rating: Bromegrass, Down (bromegrass, down; 62 g ai/ha): 25 | Plant response rating: Bromegrass, Down (bromegrass, down; 125 g ai/ha): 35 | Plant response rating: Buckwheat, Wild (buckwheat, wild [3]; 16 g ai/ha): 60 | Plant response rating: Buckwheat, Wild (buckwheat, wild [3]; 31 g ai/ha): 65 | Plant response rating: Buckwheat, Wild (buckwheat, wild [3]; 62 g ai/ha): 75 | Plant response rating: Buckwheat, Wild (buckwheat, wild [3]; 125 g ai/ha): 95 | Plant response rating: Field Violet (field violet; 16 g ai/ha): 75 | Plant response rating: Field Violet (field violet; 31 g ai/ha): 80 | Plant response rating: Field Violet (field violet; 62 g ai/ha): 100 | Plant response rating: Field Violet (field violet; 125 g ai/ha): 100 | Plant response rating (0 to 100), Buckwheat, Wild (buckwheat, wild [4]; [5]): 60 | Plant response rating: Buckwheat, Wild (buckwheat, wild [4]; 31 g ai/ha): 65 | Plant response rating: Buckwheat, Wild (buckwheat, wild [4]; 62 g ai/ha): 75 | Plant response rating: Buckwheat, Wild (buckwheat, wild [4]; 125 g ai/ha): 95 | Plant response rating: Bluegrass (bluegrass; 16 g ai/ha): 20 | Plant response rating: Bluegrass (bluegrass; 31 g ai/ha): 20 | Plant response rating: Bluegrass (bluegrass; 62 g ai/ha): 45 | Plant response rating: Bluegrass (bluegrass; 125 g ai/ha): 40

Cn1nc(-c2ccc(F)cc2)nc1C(O)c1ccnc(C(F)(F)F)c1 (stereo not drawn) [Compound 14, α-[3-(4-fluorophenyl)-1-methyl-1H-1,2,4-triazol-5-yl]-2-(trifluoromethyl)-4-pyridinemethanol]
pest or weed control at 125 g/ha (crabgrass, large): 20% | pest or weed control at 500 g/ha (crabgrass, large): 30% | pest or weed control at 125 g/ha (morningglory): 40% | pest or weed control at 500 g/ha (morningglory): 80%

CCCn1nc(-c2ccc(F)cc2)nc1Cc1ccnc(C(F)(F)F)c1 [Compound 17, 4-[[3-(4-fluorophenyl)-1-propyl-1H-1,2,4-triazol-5-yl]methyl]-2-(trifluoromethyl)pyridine]
pest or weed control at 125 g/ha (crabgrass, large): 90% | pest or weed control at 500 g/ha (crabgrass, large): 90% | pest or weed control at 125 g/ha (morningglory): 70% | pest or weed control at 500 g/ha (morningglory): 100%
